ChEMBL document CHEMBL2034920, “Protuboxepin A, a marine fungal metabolite, inducing metaphase arrest and chromosomal misalignment in tumor cells” (Bioorg Med Chem, 2012)
Activity calls are given as the source filed them. The calls are words filed in the database; no cut-off is given here.

What was measured:
Hep 3B2 [1] = experiment: Disruption of alpha-tubulin networks in human Hep3B cells assessed as induction of polyglutamylated-tubulin bleb formation at 10 nM after 18 hrs by immunofluorescence assay; type: cell-based
[2] = Cell cycle arrest in human Hep3B cells assessed as induction of prometaphase arrest at 10 nM after 24 hrs by immunofluorescence assay; type: functional, cell-based; settings: Hep 3B2
Hep 3B2 [3] = experiment: Disruption of alpha-tubulin networks in human Hep3B cells assessed as increasing acetylated-tubulin signal at 10 nM after 18 hrs by immunofluorescence assay; type: cell-based
Hep 3B2 [4] = experiment: Disruption of alpha-tubulin networks in human Hep3B cells at 10 nM after 18 hrs by immunofluorescence assay; type: cell-based
Tubulin (Homo sapiens) = Tubulin (Homo sapiens) (UniProt P68371+Q9H4B7+P0DPH7+P68366+Q13509+Q71U36+P04350+Q3ZCM7+P07437+P68363+Q9BQE3+Q6PEY2+Q13885+Q9BVA1+Q9BUF5); experiment: Disruption of gamma-tubulin networks in human Hep3B cells at 10 nM after 18 hrs by immunofluorescence assay; type: cell-based; settings: Hep 3B2
[5] = Cell cycle arrest in human Hep3B cells assessed as increase of cells with misaligned chromosomes at 10 nM after 24 hrs by immunofluorescence assay; type: functional, cell-based; settings: Hep 3B2
[6] = Cell cycle arrest in human Hep3B cells assessed as accumulation at G2/M phase at 0.5 uM after 24 hrs by flow cytometry (reference value: 24.37%); type: functional, cell-based; settings: Hep 3B2
HeLa [7] = experiment: Inhibition of microtubule dynamics in human HeLa cells expressing EB1-EGFP at 80 to 160 uM after 1 min by image time-lapse analysis; type: functional, cell-based
[8] = target: Apoptosis regulator Bcl-2 (Homo sapiens) (UniProt P10415); experiment: Induction of Bcl-2 phosphorylation at Ser70 in human Hep3B cells at 160 uM after 18 hrs by Western blotting analysis; type: cell-based; settings: Hep 3B2
MDA-MB-231 [9] = experiment: Induction of apoptosis in human MDA-MB-231 cells assessed as roundup morphology after 24 hrs by microscopic analysis; type: functional, cell-based
[10] = Cell cycle arrest in human Hep3B cells assessed as accumulation at S phase at 160 uM after 24 hrs by flow cytometry (reference value: 11.18%); type: functional, cell-based; settings: Hep 3B2
Hep 3B2 [11] = experiment: Induction of apoptosis in human Hep3B cells assessed as induction of caspase-3 cleavage at 27 to 160 uM after 18 hrs by Western blotting analysis; type: functional, cell-based
HeLa [12] = experiment: Up-regulation of geminin-GFP in human HeLa cells at 160 uM after 18 hrs by FUCCI analysis; type: functional, cell-based
[13] = Cell cycle arrest in human Hep3B cells assessed as accumulation at G0/G1 phase at 27 uM after 24 hrs by flow cytometry (reference value: 52.99%); type: functional, cell-based; settings: Hep 3B2
Hep 3B2 [14] = experiment: Induction of apoptosis in human Hep3B cells assessed as roundup morphology after 48 hrs by microscopic analysis; type: functional, cell-based
[15] = Cell cycle arrest in human Hep3B cells assessed as accumulation at G2/M phase at 27 uM after 24 hrs by flow cytometry (reference value: 24.37%); type: functional, cell-based; settings: Hep 3B2
[16] = Cell cycle arrest in human Hep3B cells assessed as accumulation at M phase at 80 uM after 24 hrs by flow cytometry (reference value: 6.24 +/- 2.14%); type: functional, cell-based; settings: Hep 3B2
Hep 3B2 [17] = experiment: Induction of chromosome mislocalization in human Hep3B cells at 80 to 160 uM after 18 hrs by immunofluorescence assay; type: functional, cell-based
Tubulin (Sus scrofa) [18] = target: T1, Tubulin (Sus scrofa) (UniProt P02554+P02550); experiment: Induction of porcine tubulin polymerization at 80 uM measured for every 1 min for 60 mins by spectrophotometry; type: protein assay
Hep 3B2 [19] = experiment: Disruption of alpha-tubulin networks in human Hep3B cells at 80 to 160 uM after 18 hrs by immunofluorescence assay; type: cell-based
Hep 3B2 [20] = experiment: Induction of chromosome misalignment in nucleus of human Hep3B cells at 80 to 160 uM after 18 hrs by immunofluorescence staining; type: functional, cell-based
Hep 3B2 [21] = experiment: Disruption of alpha-tubulin networks in human Hep3B cells assessed as increasing acetylated-tubulin signal at 80 to 160 uM after 18 hrs by immunofluorescence assay; type: cell-based
[22] = target: Cyclin-dependent kinase 1 (Homo sapiens) (UniProt P06493); experiment: Inhibition of CDC2 phosphorylation at Tyr15 in human Hep3B cells at 160 uM after 18 hrs by Western blotting analysis; type: cell-based; settings: Hep 3B2
[23] = Cell cycle arrest in human Hep3B cells assessed as accumulation at S phase at 27 uM after 24 hrs by flow cytometry (reference value: 11.18%); type: functional, cell-based; settings: Hep 3B2
Tubulin (Sus scrofa) [24] = target: T1, Tubulin (Sus scrofa); experiment: Induction of porcine tubulin polymerization at 160 uM measured for every 1 min for 60 mins by spectrophotometry; type: protein assay
[25] = Cell cycle arrest in human Hep3B cells assessed as accumulation at G0/G1 phase at 80 uM after 24 hrs by flow cytometry (reference value: 52.99%); type: functional, cell-based; settings: Hep 3B2
Hep 3B2 [26] = experiment: Induction of apoptosis in human Hep3B cells assessed as induction of PARP cleavage at 27 to 160 uM after 18 hrs by Western blotting analysis; type: functional, cell-based
[27] = Cell cycle arrest in human Hep3B cells assessed as increased the phosphorylation of histone H3 at 80 to 160 uM after 24 hrs by immunofluorescence assay; type: functional, cell-based; settings: Hep 3B2
MDA-MB-231 [28] = experiment: Induction of apoptosis in human MDA-MB-231 cells assessed as roundup morphology after 48 hrs by microscopic analysis; type: functional, cell-based
[29] = Cell cycle arrest in human Hep3B cells assessed as accumulation at G2/M phase at 80 uM after 24 hrs by flow cytometry (reference value: 24.37%); type: functional, cell-based; settings: Hep 3B2
[30] = Cell cycle arrest in human Hep3B cells assessed as induction of chromosome misalignment in nuclei at 80 to 160 uM after 24 hrs by immunofluorescence assay; type: functional, cell-based; settings: Hep 3B2
[31] = Cell cycle arrest in human Hep3B cells assessed as accumulation at M phase at 160 uM after 24 hrs by flow cytometry (reference value: 6.24 +/- 2.14%); type: functional, cell-based; settings: Hep 3B2
[32] = Cell cycle arrest in human Hep3B cells assessed as accumulation at subG1 phase at 27 uM after 24 hrs by flow cytometry (reference value: 1.14%); type: functional, cell-based; settings: Hep 3B2
[33] = Binding affinity to porcine brain alphabeta-tubulin using ForteBio's Octet system; type: tissue-based, Sus scrofa
[34] = Cell cycle arrest in human Hep3B cells assessed as accumulation at subG1 phase at 160 uM after 24 hrs by flow cytometry (reference value: 1.14%); type: functional, cell-based; settings: Hep 3B2
[35] = Cell cycle arrest in human Hep3B cells assessed as accumulation at S phase at 0.5 uM after 24 hrs by flow cytometry (reference value: 11.18%); type: functional, cell-based; settings: Hep 3B2
[36] = Cell cycle arrest in human Hep3B cells assessed as accumulation at subG1 phase at 0.5 uM after 24 hrs by flow cytometry (reference value: 1.14%); type: functional, cell-based; settings: Hep 3B2
[37] = Cell cycle arrest in human Hep3B cells assessed as accumulation at S phase at 80 uM after 24 hrs by flow cytometry (reference value: 11.18%); type: functional, cell-based; settings: Hep 3B2
[38] = Cell cycle arrest in human Hep3B cells assessed as accumulation at G0/G1 phase at 160 uM after 24 hrs by flow cytometry (reference value: 52.99%); type: functional, cell-based; settings: Hep 3B2
Homo sapiens = species on record: Homo sapiens; experiment: Induction of Histone H3 Ser10 phosphorylation in human […] cells at 80 to 160 uM after 18 hrs by immunofluorescence staining; type: cell-based
Hep 3B2 [39] = experiment: Induction of apoptosis in human Hep3B cells assessed as roundup morphology after 24 hrs by microscopic analysis; type: functional, cell-based
[40] = Cell cycle arrest in human Hep3B cells assessed as accumulation at G2/M phase at 160 uM after 24 hrs by flow cytometry (reference value: 24.37%); type: functional, cell-based; settings: Hep 3B2
Hep 3B2 [41] = experiment: Disruption of alpha-tubulin networks in human Hep3B cells assessed as induction of polyglutamylated-tubulin bleb formation at 80 to 160 uM after 18 hrs by immunofluorescence assay; type: cell-based
[42] = Cell cycle arrest in human Hep3B cells assessed as accumulation at subG1 phase at 80 uM after 24 hrs by flow cytometry (reference value: 1.14%); type: functional, cell-based; settings: Hep 3B2

T1 sequence (P02550 whole entry, looked up): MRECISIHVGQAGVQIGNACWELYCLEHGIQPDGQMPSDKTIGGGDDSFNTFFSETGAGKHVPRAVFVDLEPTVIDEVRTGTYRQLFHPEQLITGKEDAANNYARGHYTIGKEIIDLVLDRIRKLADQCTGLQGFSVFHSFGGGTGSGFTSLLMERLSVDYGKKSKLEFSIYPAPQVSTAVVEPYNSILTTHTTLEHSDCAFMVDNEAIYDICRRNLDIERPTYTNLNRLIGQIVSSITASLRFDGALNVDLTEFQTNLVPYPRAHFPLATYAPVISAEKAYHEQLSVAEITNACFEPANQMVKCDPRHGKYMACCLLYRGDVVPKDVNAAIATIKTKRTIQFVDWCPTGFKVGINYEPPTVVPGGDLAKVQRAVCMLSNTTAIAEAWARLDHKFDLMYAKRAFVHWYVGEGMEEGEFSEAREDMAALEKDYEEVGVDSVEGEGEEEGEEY
T1 sequence (P02554 whole entry, looked up): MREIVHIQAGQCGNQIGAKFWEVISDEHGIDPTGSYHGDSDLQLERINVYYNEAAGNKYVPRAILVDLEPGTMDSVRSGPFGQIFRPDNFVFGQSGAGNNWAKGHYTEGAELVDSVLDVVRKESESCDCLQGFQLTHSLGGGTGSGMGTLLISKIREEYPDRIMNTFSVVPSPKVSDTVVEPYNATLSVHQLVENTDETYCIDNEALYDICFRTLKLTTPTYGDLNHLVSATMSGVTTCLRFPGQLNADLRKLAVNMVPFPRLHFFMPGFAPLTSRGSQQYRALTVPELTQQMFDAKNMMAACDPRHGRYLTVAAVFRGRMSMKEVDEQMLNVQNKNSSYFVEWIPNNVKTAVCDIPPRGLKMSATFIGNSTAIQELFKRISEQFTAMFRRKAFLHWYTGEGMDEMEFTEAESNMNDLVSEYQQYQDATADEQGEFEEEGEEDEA
Apoptosis regulator Bcl-2 (Homo sapiens), sequence (P10415 whole entry): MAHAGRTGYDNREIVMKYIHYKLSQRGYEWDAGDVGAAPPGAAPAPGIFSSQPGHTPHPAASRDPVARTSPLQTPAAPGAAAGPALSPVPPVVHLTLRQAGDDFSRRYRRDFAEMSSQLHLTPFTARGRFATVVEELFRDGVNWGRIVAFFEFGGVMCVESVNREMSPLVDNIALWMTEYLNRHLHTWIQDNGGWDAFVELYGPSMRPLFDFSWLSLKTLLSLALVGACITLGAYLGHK
Cyclin-dependent kinase 1 (Homo sapiens), sequence (P06493 whole entry, looked up): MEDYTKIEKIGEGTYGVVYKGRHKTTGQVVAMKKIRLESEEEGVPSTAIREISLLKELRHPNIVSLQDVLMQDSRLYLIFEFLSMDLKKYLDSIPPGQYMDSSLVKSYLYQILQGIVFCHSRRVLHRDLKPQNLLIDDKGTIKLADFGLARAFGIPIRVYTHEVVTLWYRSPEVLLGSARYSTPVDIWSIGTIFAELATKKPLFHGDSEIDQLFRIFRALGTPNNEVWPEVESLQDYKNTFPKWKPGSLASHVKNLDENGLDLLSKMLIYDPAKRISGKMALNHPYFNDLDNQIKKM

## CC(=O)O[C@H]1C(=O)[C@@]2(C)[C@H]([C@H](OC(=O)c3ccccc3)[C@]3(O)C[C@H](OC(=O)[C@H](O)[C@@H](NC(=O)c4ccccc4)c4ccccc4)C(C)=C1C3(C)C)[C@]1(OC(C)=O)CO[C@@H]1C[C@@H]2O
Hep 3B2 [1]
  Activity: Active
[2]
  Activity: Active
Hep 3B2 [3]
  Activity: Active
Hep 3B2 [4]
  Activity: Active
Tubulin (Homo sapiens)
  Activity: Active
[5]
  Activity: Active

## CCC(C)[C@@H]1NC(=O)[C@@H](Cc2ccccc2)n2c1nc1c(c2=O)C=CC=CO1 (some centres undefined) [PROTUBOXEPIN A]
[6]
  Activity: 20.5%
HeLa [7]
  inhibition: Active
[8]
  Activity: Active
MDA-MB-231 [9]
  Activity: Dose-dependent effect
[10]
  Activity: 7.44%
Hep 3B2 [11]
  Activity: Active
HeLa [12]
  Activity: Active
[13]
  Activity: 49.1%
Hep 3B2 [14]
  Activity: Dose-dependent effect
[15]
  Activity: 26%
[16]
  Activity: 18.8%
Hep 3B2 [17]
  Activity: Active
Tubulin (Sus scrofa) [18]
  Activity: Active
Hep 3B2 [19]
  Activity: Active
Hep 3B2 [20]
  Activity: Active
Hep 3B2 [21]
  Activity: Active
[22]
  inhibition: Active
[23]
  Activity: 10.1%
Tubulin (Sus scrofa) [24]
  Activity: Active
[25]
  Activity: 41.9%
Hep 3B2 [26]
  Activity: Active
[27]
  Activity: Active
MDA-MB-231 [28]
  Activity: Dose-dependent effect
[29]
  Activity: 34.4%
[30]
  Activity: Active
[31]
  Activity: 39.5%
[32]
  Activity: 2.26%
[33]
  Kd: 71.3 µM
[34]
  Activity: 20.8%
[35]
  Activity: 7.31%
[36]
  Activity: 7%
[37]
  Activity: 10.8%
[38]
  Activity: 23.7%
Homo sapiens
  Activity: Active
Hep 3B2 [39]
  Activity: Dose-dependent effect
[40]
  Activity: 46.7%
Hep 3B2 [41]
  Activity: Active
[42]
  Activity: 6.12%
